From ChEMBL document CHEMBL1681728, “An automated, polymer-assisted strategy for the preparation of urea and thiourea derivatives of 15-membered azalides as potential antimalarial chemotherapeutics” (Bioorg Med Chem, 2011)

Legend:
Assay type in all cases: functional, organism-based
Plasmodium falciparum [1] = assay: Antimalarial activity against chloroquine-sensitive Plasmodium falciparum D6 assessed as inhibition of [3H]hypoxanthine incorporation after 96 hrs by microtiter plate scintillation counting
Plasmodium falciparum [2] = assay: Antimalarial activity against chloroquine-,pyrimethamine-resistant Plasmodium falciparum W2 assessed as inhibition of [3H]hypoxanthine incorporation after 96 hrs by microtiter plate scintillation counting
Plasmodium falciparum [3] = assay: Antimalarial activity against multidrug-resistant Plasmodium falciparum TM91C235 assessed as inhibition of [3H]hypoxanthine incorporation after 96 hrs by microtiter plate scintillation counting

CC[C@H]1OC(=O)[C@H](C)[C@@H](O[C@H]2C[C@@](C)(OC)[C@@H](O)[C@H](C)O2)[C@H](C)[C@@H](O[C@@H]2O[C@H](C)C[C@H](N(C)C)[C@H]2O)[C@](C)(O)C[C@@H](C)CN(CCCNC(=S)Nc2ccc(Cl)cc2)[C@H](C)[C@@H](O)[C@]1(C)O
IC50 (Plasmodium falciparum [1]): 188 nM
IC50 (Plasmodium falciparum [2]): 53.4 nM
IC50 (Plasmodium falciparum [3]): 108 nM

CC[C@H]1OC(=O)[C@H](C)[C@@H](O[C@H]2C[C@@](C)(OC)[C@@H](O)[C@H](C)O2)[C@H](C)[C@@H](O[C@@H]2O[C@H](C)C[C@H](N(C)C)[C@H]2O)[C@](C)(O)C[C@@H](C)CN(CCCNC(=S)Nc2ccc(Oc3ccccc3)nc2)[C@H](C)[C@@H](O)[C@]1(C)O
IC50 (Plasmodium falciparum [1]): 215 nM
IC50 (Plasmodium falciparum [2]): 109 nM
IC50 (Plasmodium falciparum [3]): 133 nM

CC[C@H]1OC(=O)[C@H](C)[C@@H](O[C@H]2C[C@@](C)(OC)[C@@H](O)[C@H](C)O2)[C@H](C)[C@@H](O[C@@H]2O[C@H](C)C[C@H](N(C)C)[C@H]2O)[C@](C)(O)C[C@@H](C)CN(CCCNC(=S)N[C@H]2CCCC[C@H]2OCc2ccccc2)[C@H](C)[C@@H](O)[C@]1(C)O
IC50 (Plasmodium falciparum [1]): 645 nM
IC50 (Plasmodium falciparum [2]): 274 nM
IC50 (Plasmodium falciparum [3]): 126 nM

CC[C@H]1OC(=O)[C@H](C)[C@@H](O[C@H]2C[C@@](C)(OC)[C@@H](O)[C@H](C)O2)[C@H](C)[C@@H](O[C@@H]2O[C@H](C)C[C@H](N(C)C)[C@H]2O)[C@](C)(O)C[C@@H](C)CN(CCCNC(=S)Nc2ccc([N+](=O)[O-])cc2OC)[C@H](C)[C@@H](O)[C@]1(C)O
IC50 (Plasmodium falciparum [1]): 74.5 nM
IC50 (Plasmodium falciparum [2]): 50.1 nM
IC50 (Plasmodium falciparum [3]): 69.7 nM

CC[C@H]1OC(=O)[C@H](C)[C@@H](O[C@H]2C[C@@](C)(OC)[C@@H](O)[C@H](C)O2)[C@H](C)[C@@H](O[C@@H]2O[C@H](C)C[C@H](N(C)C)[C@H]2O)[C@](C)(O)C[C@@H](C)CN(CCCNC(=S)NC(c2ccccc2)c2ccccc2)[C@H](C)[C@@H](O)[C@]1(C)O
IC50 (Plasmodium falciparum [1]): 218 nM
IC50 (Plasmodium falciparum [2]): 37.7 nM
IC50 (Plasmodium falciparum [3]): 55 nM

CC[C@H]1OC(=O)[C@H](C)[C@@H](O[C@H]2C[C@@](C)(OC)[C@@H](O)[C@H](C)O2)[C@H](C)[C@@H](O[C@@H]2O[C@H](C)C[C@H](N(C)C)[C@H]2O)[C@](C)(O)C[C@@H](C)CN(CCCNC(=S)NCC(C)C)[C@H](C)[C@@H](O)[C@]1(C)O
IC50 (Plasmodium falciparum [1]): 689 nM
IC50 (Plasmodium falciparum [2]): 495 nM
IC50 (Plasmodium falciparum [3]): 435 nM

CC[C@H]1OC(=O)[C@H](C)[C@@H](O[C@H]2C[C@@](C)(OC)[C@@H](O)[C@H](C)O2)[C@H](C)[C@@H](O[C@@H]2O[C@H](C)C[C@H](N(C)C)[C@H]2O)[C@](C)(O)C[C@@H](C)CN(CCCNC(=S)NCCCl)[C@H](C)[C@@H](O)[C@]1(C)O
IC50 (Plasmodium falciparum [1]): 12800 nM
IC50 (Plasmodium falciparum [2]): 12800 nM
IC50 (Plasmodium falciparum [3]): 12800 nM

CC[C@H]1OC(=O)[C@H](C)[C@@H](O[C@H]2C[C@@](C)(OC)[C@@H](O)[C@H](C)O2)[C@H](C)[C@@H](O[C@@H]2O[C@H](C)C[C@H](N(C)C)[C@H]2O)[C@](C)(O)C[C@@H](C)CN(CCCNC(=O)NC(C)(C)C)[C@H](C)[C@@H](O)[C@]1(C)O
IC50 (Plasmodium falciparum [1]): 5510 nM
IC50 (Plasmodium falciparum [2]): 410 nM
IC50 (Plasmodium falciparum [3]): 800 nM

CC[C@H]1OC(=O)[C@H](C)[C@@H](O[C@H]2C[C@@](C)(OC)[C@@H](O)[C@H](C)O2)[C@H](C)[C@@H](O[C@@H]2O[C@H](C)C[C@H](N(C)C)[C@H]2O)[C@](C)(O)C[C@@H](C)CN(CCCNC(=O)Nc2c(C)noc2C)[C@H](C)[C@@H](O)[C@]1(C)O
IC50 (Plasmodium falciparum [1]): 12800 nM
IC50 (Plasmodium falciparum [2]): 12800 nM
IC50 (Plasmodium falciparum [3]): 12800 nM

CCC(C)NC(=O)NCCCN1C[C@H](C)C[C@@](C)(O)[C@H](O[C@@H]2O[C@H](C)C[C@H](N(C)C)[C@H]2O)[C@@H](C)[C@H](O[C@H]2C[C@@](C)(OC)[C@@H](O)[C@H](C)O2)[C@@H](C)C(=O)O[C@H](CC)[C@@](C)(O)[C@H](O)[C@H]1C (stereo partly drawn)
IC50 (Plasmodium falciparum [1]): 14000 nM
IC50 (Plasmodium falciparum [2]): 489 nM
IC50 (Plasmodium falciparum [3]): 1180 nM

CCOC(=O)c1ccc(NC(=S)NCCCN2C[C@H](C)C[C@@](C)(O)[C@H](O[C@@H]3O[C@H](C)C[C@H](N(C)C)[C@H]3O)[C@@H](C)[C@H](O[C@H]3C[C@@](C)(OC)[C@@H](O)[C@H](C)O3)[C@@H](C)C(=O)O[C@H](CC)[C@@](C)(O)[C@H](O)[C@H]2C)cc1
IC50 (Plasmodium falciparum [1]): 121 nM
IC50 (Plasmodium falciparum [2]): 70.9 nM
IC50 (Plasmodium falciparum [3]): 107 nM

CC[C@H]1OC(=O)[C@H](C)[C@@H](O[C@H]2C[C@@](C)(OC)[C@@H](O)[C@H](C)O2)[C@H](C)[C@@H](O[C@@H]2O[C@H](C)C[C@H](N(C)C)[C@H]2O)[C@](C)(O)C[C@@H](C)CN(CCCNC(=O)Nc2ccc(C)cc2)[C@H](C)[C@@H](O)[C@]1(C)O
IC50 (Plasmodium falciparum [1]): 330 nM
IC50 (Plasmodium falciparum [2]): 88.7 nM
IC50 (Plasmodium falciparum [3]): 139 nM

CC[C@H]1OC(=O)[C@H](C)[C@@H](O[C@H]2C[C@@](C)(OC)[C@@H](O)[C@H](C)O2)[C@H](C)[C@@H](O[C@@H]2O[C@H](C)C[C@H](N(C)C)[C@H]2O)[C@](C)(O)C[C@@H](C)CN(CCCNC(=S)NC2CC3C=CC2C3)[C@H](C)[C@@H](O)[C@]1(C)O (stereo partly drawn)
IC50 (Plasmodium falciparum [1]): 302 nM
IC50 (Plasmodium falciparum [2]): 173 nM
IC50 (Plasmodium falciparum [3]): 183 nM

CC[C@H]1OC(=O)[C@H](C)[C@@H](O[C@H]2C[C@@](C)(OC)[C@@H](O)[C@H](C)O2)[C@H](C)[C@@H](O[C@@H]2O[C@H](C)C[C@H](N(C)C)[C@H]2O)[C@](C)(O)C[C@@H](C)CN(CCCNC(=S)Nc2sc3c(c2C(=O)OC)CCCC3)[C@H](C)[C@@H](O)[C@]1(C)O
IC50 (Plasmodium falciparum [1]): 825 nM
IC50 (Plasmodium falciparum [2]): 229 nM
IC50 (Plasmodium falciparum [3]): 407 nM

CC[C@H]1OC(=O)[C@H](C)[C@@H](O[C@H]2C[C@@](C)(OC)[C@@H](O)[C@H](C)O2)[C@H](C)[C@@H](O[C@@H]2O[C@H](C)C[C@H](N(C)C)[C@H]2O)[C@](C)(O)C[C@@H](C)CN(CCCNC(=O)Nc2cc(F)cc3c2OCOC3)[C@H](C)[C@@H](O)[C@]1(C)O
IC50 (Plasmodium falciparum [1]): 284 nM
IC50 (Plasmodium falciparum [2]): 306 nM
IC50 (Plasmodium falciparum [3]): 220 nM

C=CCNC(=S)NCCCN1C[C@H](C)C[C@@](C)(O)[C@H](O[C@@H]2O[C@H](C)C[C@H](N(C)C)[C@H]2O)[C@@H](C)[C@H](O[C@H]2C[C@@](C)(OC)[C@@H](O)[C@H](C)O2)[C@@H](C)C(=O)O[C@H](CC)[C@@](C)(O)[C@H](O)[C@H]1C
IC50 (Plasmodium falciparum [1]): 1140 nM
IC50 (Plasmodium falciparum [2]): 276 nM
IC50 (Plasmodium falciparum [3]): 514 nM

CC[C@H]1OC(=O)[C@H](C)[C@@H](O[C@H]2C[C@@](C)(OC)[C@@H](O)[C@H](C)O2)[C@H](C)[C@@H](O[C@@H]2O[C@H](C)C[C@H](N(C)C)[C@H]2O)[C@](C)(O)C[C@@H](C)CN(CCCNC(=S)Nc2ccsc2C(=O)OC)[C@H](C)[C@@H](O)[C@]1(C)O
IC50 (Plasmodium falciparum [1]): 452 nM
IC50 (Plasmodium falciparum [2]): 375 nM
IC50 (Plasmodium falciparum [3]): 330 nM

CC[C@H]1OC(=O)[C@H](C)[C@@H](O[C@H]2C[C@@](C)(OC)[C@@H](O)[C@H](C)O2)[C@H](C)[C@@H](O[C@@H]2O[C@H](C)C[C@H](N(C)C)[C@H]2O)[C@](C)(O)C[C@@H](C)CN(CCCNC(=O)Nc2cc(C(=O)OC)cc(C(=O)OC)c2)[C@H](C)[C@@H](O)[C@]1(C)O
IC50 (Plasmodium falciparum [1]): 648 nM
IC50 (Plasmodium falciparum [2]): 120 nM
IC50 (Plasmodium falciparum [3]): 411 nM

CC[C@H]1OC(=O)[C@H](C)[C@@H](O[C@H]2C[C@@](C)(OC)[C@@H](O)[C@H](C)O2)[C@H](C)[C@@H](O[C@@H]2O[C@H](C)C[C@H](N(C)C)[C@H]2O)[C@](C)(O)C[C@@H](C)CN(CCCNC(=S)Nc2ccc(F)c(F)c2F)[C@H](C)[C@@H](O)[C@]1(C)O
IC50 (Plasmodium falciparum [1]): 449 nM
IC50 (Plasmodium falciparum [2]): 165 nM
IC50 (Plasmodium falciparum [3]): 73.7 nM

CC[C@H]1OC(=O)[C@H](C)[C@@H](O[C@H]2C[C@@](C)(OC)[C@@H](O)[C@H](C)O2)[C@H](C)[C@@H](O[C@@H]2O[C@H](C)C[C@H](N(C)C)[C@H]2O)[C@](C)(O)C[C@@H](C)CN(CCCNC(=S)Nc2cccc(F)c2)[C@H](C)[C@@H](O)[C@]1(C)O
IC50 (Plasmodium falciparum [1]): 511 nM
IC50 (Plasmodium falciparum [2]): 200 nM
IC50 (Plasmodium falciparum [3]): 116 nM

CC[C@H]1OC(=O)[C@H](C)[C@@H](O[C@H]2C[C@@](C)(OC)[C@@H](O)[C@H](C)O2)[C@H](C)[C@@H](O[C@@H]2O[C@H](C)C[C@H](N(C)C)[C@H]2O)[C@](C)(O)C[C@@H](C)CN(CCCNC(=O)Nc2ccccc2-c2ccccc2)[C@H](C)[C@@H](O)[C@]1(C)O
IC50 (Plasmodium falciparum [1]): 254 nM
IC50 (Plasmodium falciparum [2]): 202 nM
IC50 (Plasmodium falciparum [3]): 137 nM

CC[C@H]1OC(=O)[C@H](C)[C@@H](O[C@H]2C[C@@](C)(OC)[C@@H](O)[C@H](C)O2)[C@H](C)[C@@H](O[C@@H]2O[C@H](C)C[C@H](N(C)C)[C@H]2O)[C@](C)(O)C[C@@H](C)CN(CCCNC(=O)Nc2ccc(OC)c(OC3CCCC3)c2)[C@H](C)[C@@H](O)[C@]1(C)O
IC50 (Plasmodium falciparum [1]): 445 nM
IC50 (Plasmodium falciparum [2]): 201 nM
IC50 (Plasmodium falciparum [3]): 138 nM

CC[C@H]1OC(=O)[C@H](C)[C@@H](O[C@H]2C[C@@](C)(OC)[C@@H](O)[C@H](C)O2)[C@H](C)[C@@H](O[C@@H]2O[C@H](C)C[C@H](N(C)C)[C@H]2O)[C@](C)(O)C[C@@H](C)CN(CCCNC(=O)NC2CCCC2)[C@H](C)[C@@H](O)[C@]1(C)O
IC50 (Plasmodium falciparum [1]): 6020 nM
IC50 (Plasmodium falciparum [2]): 277 nM
IC50 (Plasmodium falciparum [3]): 616 nM

CC[C@H]1OC(=O)[C@H](C)[C@@H](O[C@H]2C[C@@](C)(OC)[C@@H](O)[C@H](C)O2)[C@H](C)[C@@H](O[C@@H]2O[C@H](C)C[C@H](N(C)C)[C@H]2O)[C@](C)(O)C[C@@H](C)CN(CCCNC(=S)NC(c2ccccc2)(c2ccccc2)c2ccccc2)[C@H](C)[C@@H](O)[C@]1(C)O
IC50 (Plasmodium falciparum [1]): 125 nM
IC50 (Plasmodium falciparum [2]): 37 nM
IC50 (Plasmodium falciparum [3]): 31.9 nM

CC[C@H]1OC(=O)[C@H](C)[C@@H](O[C@H]2C[C@@](C)(OC)[C@@H](O)[C@H](C)O2)[C@H](C)[C@@H](O[C@@H]2O[C@H](C)C[C@H](N(C)C)[C@H]2O)[C@](C)(O)C[C@@H](C)CN(CCCNC(=O)Nc2cccc3nsnc23)[C@H](C)[C@@H](O)[C@]1(C)O
IC50 (Plasmodium falciparum [1]): 266 nM
IC50 (Plasmodium falciparum [2]): 69.2 nM
IC50 (Plasmodium falciparum [3]): 64.7 nM

CC[C@H]1OC(=O)[C@H](C)[C@@H](O[C@H]2C[C@@](C)(OC)[C@@H](O)[C@H](C)O2)[C@H](C)[C@@H](O[C@@H]2O[C@H](C)C[C@H](N(C)C)[C@H]2O)[C@](C)(O)C[C@@H](C)CN(CCCNC(=S)NC2CC2)[C@H](C)[C@@H](O)[C@]1(C)O
IC50 (Plasmodium falciparum [1]): 3720 nM
IC50 (Plasmodium falciparum [2]): 679 nM
IC50 (Plasmodium falciparum [3]): 972 nM
